# What was measured:
# Assay type in all cases: in vivo
# SETVI: Setaria viridis = test: Pre-emergence herbicidal effect; conditions: application rate 320 g/ha, scored visually after 3 weeks, 100% = plants have died, 0% = like control plants
# How it was run: (§1)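 Seeds sown in sandy loam and covered; compounds formulated as WP or EC were sprayed on the soil surface at 600 to 800 L/ha water with 0.2% wetting agent. Greenhouse-grown; visual damage scored after 3 weeks versus untreated controls (0–100%).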
# [1] = tested on: ABUTH: Abutilon theophrasti; test: Pre-emergence herbicidal effect; conditions: application rate 320 g/ha, scored visually after 3 weeks, 100% = plants have died, 0% = like control plants
# How it was run: as §1
# STEME: Stellaria media [2] = test: Pre-emergence herbicidal effect; conditions: application rate 320 g/ha, scored visually after 3 weeks, 100% = plants have died, 0% = like control plants
# How it was run: as §1
# [3] = tested on: ALOMY: Alopecurus myosuroides; test: Pre-emergence herbicidal effect; conditions: application rate 320 g/ha, scored visually after 3 weeks, 100% = plants have died, 0% = like control plants
# How it was run: as §1
# [4] = tested on: POLCO: Polygonum convolvulus; test: Pre-emergence herbicidal effect; conditions: application rate 320 g/ha, scored visually after 3 weeks, 100% = plants have died, 0% = like control plants
# How it was run: as §1
# [5] = tested on: MATIN: Matricaria inodora; test: Pre-emergence herbicidal effect; conditions: application rate 320 g/ha, scored visually after 3 weeks, 100% = plants have died, 0% = like control plants
# How it was run: as §1
# VERPE: Veronica persica [6] = test: Pre-emergence herbicidal effect; conditions: application rate 320 g/ha, scored visually after 3 weeks, 100% = plants have died, 0% = like control plants
# How it was run: as §1
# [7] = tested on: ECHCG: Echinochloa crus-galli; test: Pre-emergence herbicidal effect; conditions: application rate 320 g/ha, scored visually after 3 weeks, 100% = plants have died, 0% = like control plants
# How it was run: as §1
# [8] = tested on: LOLMU: Lolium multiflorum; test: Pre-emergence herbicidal effect; conditions: application rate 320 g/ha, scored visually after 3 weeks, 100% = plants have died, 0% = like control plants
# How it was run: as §1
# VIOTR: Viola tricolor = test: Post-emergence herbicidal effect; conditions: application rate 320 g/ha, treated at one-leaf stage, assessed visually after about 3 weeks, 100% = plants have died
# How it was run: (§2)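 Seedlings at the one-leaf stage are treated over the foliage with an aqueous spray (600 to 800 L/ha, 0.2% wetting agent) of WP or EC preparations. They then stand in the greenhouse for about 3 weeks before a visual percent score against untreated controls.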
# STEME: Stellaria media [9] = test: Post-emergence herbicidal effect; conditions: application rate 320 g/ha, treated at one-leaf stage, assessed visually after about 3 weeks, 100% = plants have died
# How it was run: as §2
# [10] = tested on: ALOMY: Alopecurus myosuroides; test: Post-emergence herbicidal effect; conditions: application rate 320 g/ha, treated at one-leaf stage, assessed visually after about 3 weeks, 100% = plants have died
# How it was run: as §2
# [11] = tested on: AMARE: Amaranthus retroflexus; test: Post-emergence herbicidal effect; conditions: application rate 320 g/ha, treated at one-leaf stage, assessed visually after about 3 weeks, 100% = plants have died
# How it was run: as §2
# VERPE: Veronica persica [12] = test: Post-emergence herbicidal effect; conditions: application rate 320 g/ha, treated at one-leaf stage, assessed visually after about 3 weeks, 100% = plants have died
# How it was run: as §2
# [13] = tested on: ECHCG: Echinochloa crus-galli; test: Post-emergence herbicidal effect; conditions: application rate 320 g/ha, treated at one-leaf stage, assessed visually after about 3 weeks, 100% = plants have died
# How it was run: as §2
SMILES,Herbicidal activity with respect to [%] SETVI (SETVI: Setaria viridis),Herbicidal activity with respect to [%] ABUTH [1],Herbicidal activity with respect to [%] STEME (STEME: Stellaria media [2]),Herbicidal activity with respect to [%] ALOMY [3],Herbicidal activity with respect to [%] POLCO [4],Herbicidal activity with respect to [%] MATIN [5],Herbicidal activity with respect to [%] VERPE (VERPE: Veronica persica [6]),Herbicidal activity with respect to [%] ECHCG [7],Herbicidal activity with respect to [%] LOLMU [8],Herbicidal activity with respect to [%] VIOTR (VIOTR: Viola tricolor),Herbicidal activity with respect to [%] STEME (STEME: Stellaria media [9]),Herbicidal activity with respect to [%] ALOMY [10],Herbicidal activity with respect to [%] AMARE [11],Herbicidal activity with respect to [%] VERPE (VERPE: Veronica persica [12]),Herbicidal activity with respect to [%] ECHCG [13]
Cc1ccc2c(c1)[C@H](Nc1nnc(C(F)(F)F)c(N)n1)[C@@H](C)C2 [Example 1.23],100%,100%,100%,100%,100%,100%,100%,100%,90%,100%,100%,100%,100%,90%,100%
Nc1nc(N[C@@H]2CCc3ccccc32)nnc1C(F)(F)F [Example 1.24],100%,80%,100%,100%,100%,100%,100%,100%,100%,100%,100%,100%,90%,100%,100%
Cc1ccc2c(c1)[C@H](Nc1nnc(C#N)c(N)n1)[C@@H](C)C2 [Example 1.25],100%,100%,100%,100%,100%,100%,100%,100%,100%,90%,100%,100%,90%,100%,100%
Cc1ccc2c(c1)[C@H](Nc1nnc([S+](C)[O-])c(N)n1)[C@@H](C)C2 (stereo partly drawn) [Example 1.44],100%,100%,100%,100%,100%,100%,100%,100%,100%,90%,90%,100%,100%,100%,90%
Cc1ccc2c(c1)[C@H](Nc1nnc(C(F)(F)F)c(N)n1)CCC2 [Example 1.52],100%,100%,100%,100%,100%,100%,100%,100%,100%,90%,100%,100%,100%,90%,100%
Cc1ccc2c(c1)[C@H](Nc1nnc(C(F)(F)F)c(N)n1)CC2 [Example 1.67],100%,80%,100%,100%,100%,100%,100%,100%,100%,100%,100%,90%,100%,90%,100%
Cc1ccc2c(c1)[C@H](Nc1nnc(C#N)c(N)n1)CC2 [Example 1.70],100%,100%,100%,100%,100%,100%,100%,100%,100%,90%,100%,100%,90%,100%,100%
Cc1ccc2c(c1)[C@H](Nc1nnc([S+](C)[O-])c(N)n1)CC2 (stereo partly drawn) [Example 1.71],100%,100%,100%,100%,100%,100%,100%,100%,100%,90%,100%,90%,80%,80%,100%
CC(=O)c1nnc(N[C@@H]2CCc3ccc(C)cc32)nc1N [Example 1.72],100%,100%,100%,100%,100%,100%,100%,100%,100%,90%,100%,100%,90%,80%,100%
Cc1ccc2c(c1)[C@H](Nc1nnc(S(C)(=O)=O)c(N)n1)CC2 [Example 1.73],100%,100%,100%,100%,100%,100%,100%,100%,100%,90%,100%,100%,100%,100%,100%
